This is an account of results in patent publication US20220346377A1, “NOVEL COMPOSITIONS” (DSM IP ASSETS B.V., priority 2019, published 2022).

Format in all cases: cell-based
The test system of assay [1] is Candida albicans. As to the kind of experiment: Antimicrobial efficacy in analogy to challenge test (NF EN ISO11930), Candida albicans. The protocol: The antimicrobial efficacy was assessed in analogy to the regulatory challenge test method (NF EN ISO11930). Thus, mixtures of the respective active(s) with physiological serum with 0.85 wt.-% NaCl in the concentrations as outlined below are prepared under sterile conditions. Controls were also prepared under sterile conditions. The control as well as the mixtures were then deposed in 96-deep well plates (1.6 ml/well). […] After the contamination, each well was thoroughly mixed to ensure a homogeneous distribution of microbes. Then each plate was incubated at 22° C. for 24 h. The counting of the (remaining) population is carried out 24 h after contamination. Then, the average log reduction is calculated [−log 10{(value inoculum)/(value sample)}] which is represented in tables 1-5.

Assay [2] relates to Aspergillus brasiliensis. The assay can be described thus: Antimicrobial efficacy in analogy to challenge test (NF EN ISO11930), Aspergillus brasiliensis. The settings on record: 0.3 wt.-% DBO. As for the experimental part: (§1) The antimicrobial efficacy was assessed in analogy to the regulatory challenge test method (NF EN ISO11930). Thus, mixtures of the respective active(s) with physiological serum with 0.85 wt.-% NaCl in the concentrations as outlined below are prepared under sterile conditions. Controls were also prepared under sterile conditions. The control as well as the mixtures were then deposed in 96-deep well plates (1.6 ml/well). The wells were contaminated with the respective bacterial or the fungal strains at 2.5*10^5 to 5.6*10^5 cfu/ml for the bacteria and 1*10^4 to 2.5*10^4 cfu/ml for the fungi to obtain the initial contamination as outlined below. After the contamination, each well was thoroughly mixed to ensure a homogeneous distribution of microbes. Then each plate was incubated at 22° C. for 24 h. The counting of the (remaining) population is carried out 24 h after contamination. Then, the average log reduction is calculated [−log 10{(value inoculum)/(value sample)}] which is represented in tables 1-5.

For assay [3], the system named is Staphylococcus aureus. As to the kind of experiment: Antimicrobial efficacy in analogy to challenge test (NF EN ISO11930), Staphylococcus aureus. As for the experimental part:
as §1

In assay [4] the test system is Escherichia coli. The assay can be described thus: Antimicrobial efficacy in analogy to challenge test (NF EN ISO11930), Escherichia coli. The settings on record: 0.2 wt.-% Sodium Benzoate. The protocol:
as §1

On to `c1ccc2oc(-c3ccc(-c4nc5ccccc5o4)cc3)nc2c1` [DBO, 1,4-di(benzoxazol-2′-yl)benzene], for which the Log reduction in assay [1] (0.3 wt.-% DBO, 24 h after contamination) is recorded as −0.51; in assay [2] (24 h after contamination), −2.05. The “colony count 24 h” value was 10000 cfu/ml in assay [1] (0.3 wt.-% DBO, inoculum 32000 cfu/ml, 22° C., 24 h, physiological serum 0.85 wt.-% NaCl) and 400 cfu/ml in assay [2] (inoculum 45000 cfu/ml, 22° C., 24 h). Further, the “synergistic effect on antimicrobial activity” value in assay [3] (DBO with p-Hydroxyacetophenone, conclusion from Table 3) is “synergistically enhances the antimicrobial activity of p-Hydroxyacetophenone”.

As for `CC(=O)c1ccc(O)cc1` [HAP, p-Hydroxyacetophenone], in assay [3] (0.3 wt.-% HAP, inoculum 550000 cfu/ml, 24 h), the “colony count 24 h” value is 70000 cfu/ml.

On to `OCCCO` [PDO, 1,3-propanediol], for which the Log reduction in assay [1] (1.0 wt.-% PDO, 24 h) is −0.24. The “colony count 24 h” value in assay [1] (1.0 wt.-% PDO, inoculum 70000 cfu/ml, 24 h) turned out to be 40000 cfu/ml.

For the compound `O=C([O-])c1ccccc1.[Na+]` [Sodium Benzoate, sodium benzoate], the “colony count 24 h” value in assay [4] (inoculum 400000 cfu/ml) worked out at 1000000 cfu/ml. For the same compound, the Log reduction entry in assay [4] (24 h) is recorded as “+0.40”.
